Assay results: patent US7402579B2, “Quinobenzoxazine analogs and compositions” (Cylene Pharmaceuticals, Inc., priority 2005, dated 2008)
Like-named read-outs stand apart in the source and are kept apart here.

How the values were obtained:
[1] = tested on: HeLa cells; test: MTS cell proliferation/cytotoxicity assay, Hela; format: cell-based; conditions: Homo sapiens
Experimental: (§1) The antiproliferative effects of the present compounds may be tested using a cell proliferation and/or cytotoxicity assay, following protocols described below.
Cell culture. Human cervical epithelial cells (HeLa cells) are obtained from American Type Culture Collection (Manassas, Va.). Cells are grown in Eagle's minimum essential medium (MEM, Hyclone, Utah) supplemented with 2 mM Glutamine, 0.1 mM nonessential amino acid, 1 mM Na Pyruvate, 1.5 g/L NaHCO3, 50 mg/L gentamicin, and 10% fetal bovine serum (Hyclone, USA) in a humidified atmosphere of 5% CO2 at 37° C.
(§2) MTS assays. Antiproliferative effects of anticancer drugs are tested by the CellTiter 96 AQueous assay (Promega, Wis.), which is a colorimetric assay for determining the number of viable cells. (See, e.g., Wang, L., et al., Methods Cell Sci (1996) 18:249-255).
(§3) Generally, cells (2,000 to 5,000 cells/well) are seeded on 96 well flat bottom plates (Corning, N.Y.) in 100 μl of culture medium without any anticancer drug on day 0, and the culture medium is exchanged for that contained anticancer drugs at various concentrations on day 1. After incubation for 3 days under normal growth conditions (on day 4), the monolayers are washed once in PBS, and the medium is switched to 100 μl of PBS in each of the 96 well plate. After mixing MTS and PMS at the ratio of 20:1, 20 μl of MTS/PMS solution is added to each of the 96 well plate and incubated for 4 hours in a humidified atmosphere of 5% CO2 at 37° C. The absorbance was read at 490 nm using FLUOstar Galaxy 96 well plate reader (BMG Labtechnologies, Germany).

[2] = tested on: HCT-116 cells; test: MTS cell proliferation/cytotoxicity assay, HCT-116; format: cell-based; conditions: Homo sapiens
Experimental: as §1, §2, §3

[3] = biological target: c-Myc template DNA (quadruplex); test: Quadruplex binding assay (STOP assay, Taq polymerase arrest, capillary electrophoresis); format: biochemical; conditions: concentration at which 50% of the DNA was arrested
Experimental: Generally, a 5′-fluorescent-labeled (FAM) primer (P45, 15 nM) was mixed with template DNA (15 nM) in a Tris-HCL buffer (15 mM Tris, pH 7.5) containing 10 mM MgCl2, 0.1 mM EDTA and 0.1 mM mixed deoxynucleotide triphosphates (dNTP's). In one example, the FAM-P45 primer (5′-6FAM-[…] CAATT-3′) (SEQ ID NO. 17) and the c-Myc template DNA (5′-[…] […] […]-3′) (SEQ ID NO. 18) were synthesized and HPLC purified by Applied Biosystems. The mixture was denatured at 95° C. for 5 minutes and, after cooling down to room temperature, was incubated at 37° C. for 15 minutes.
After cooling down to room temperature, 1 mM […] and the test compound (various concentrations) were added and the mixture incubated for 15 minutes at room temperature. The primer extension was performed by adding 10 mM KCl and Taq DNA Polymerase (2.5 U/reaction, Promega) and incubating at 70° C. for 30 minutes. The reaction was stopped by adding 1 μl of the reaction mixture to 10 μl Hi-Di Formamide mixed and 0.25 μl LIZ120 size standard. Hi-Di Formamide and LIZ120 size standard were purchased from Applied Biosystems. The partially extended quadruplex arrest product was between 61 or 62 bases long and the full-length extended product was 99 bases long. The products were separated and analyzed using capillary electrophoresis. Capillary electrophoresis was performed using an ABI PRISM 3100-Avant Genetic Analyzer. The assay was performed using compounds described above, and μM concentrations reported in Table 1 (Tables 1A-1F) are concentrations at which 50% of the DNA was arrested in the assay (i.e., the ratio of shorter partially extended DNA (arrested DNA) to full-length extended DNA is 1:1).
Stop Assays. Stop assays are high throughput, first-pass screens for detecting drugs that bind to and stabilize the target G-quadruplex. Generally, DNA template oligonucleotide is created, which contains the nucleotide sequence of the “target” quadruplex against which drug screening is desired. A fluorescently labeled primer DNA is then annealed to the 3′ end of the template DNA. A DNA polymerase such as Taq polymerase is then introduced to synthesize a complementary strand of DNA by extending from the fluorescently labeled primer. When the progress of the Taq polymerase is unhindered, it synthesizes a full-length copy of the template. […] If, however, the test drug selectively binds to and stabilizes the quadruplex, the progress of polymerase arrests only at the quadruplex, and a characteristic “Stop Product” is synthesized.
These products are visualized by capillary electrophoresis.

IC50 ([3]; Table 1B, read-out: STOP IC50)	Structure (SMILES)	IC50 ([1]; Table 1B)	IC50 ([2]; Table 1B)	IC50 ([1]; Table 1A)	IC50 ([2]; Table 1A)	other results
3.4 µM	CN1CCCC1CCNC(=O)c1cn2c3c(cc(SCCc4cnccn4)cc3c1=O)Oc1cc3ccccc3cc1-2 (stereo not drawn)	1.8 µM	10 µM	–	–	–
–	CC(=O)N1CCN(c2cc3c(=O)c(C(=O)NCCN4CCCC4)cn4c3c(c2F)Oc2cc(Cl)ccc2-4)CC1	–	–	–	–	IC50 ([3]; Table 1C, read-out: STOP IC50): 6 µM
2.9 µM	CN1CCCC1CCNC(=O)c1cn2c3c(cc(SCc4ccncc4)cc3c1=O)Oc1cc3ccccc3cc1-2 (stereo not drawn)	4.1 µM	4.2 µM	–	–	–
–	CC(C)N1CCN(c2c(F)cc3c(=O)c(C(=O)NCCN4CCCC4)cn4c3c2Oc2ccc(C#N)cc2-4)CC1	–	–	0.04 µM	0.03 µM	IC50 ([3]; Table 1A, read-out: STOP IC50): 10 µM
–	CN1CCCC1CCNC(=O)c1cn2c3c(c(N4CCC(c5cnccn5)C4)c(F)cc3c1=O)Oc1ccc(C#N)cc1-2 (stereo not drawn)	–	–	1.2 µM	0.4 µM	–
14 µM	CN1CCCC1CCNC(=O)c1cn2c3c(cc(SCc4ccccc4)cc3c1=O)Oc1cc3ccccc3cc1-2 (stereo not drawn)	5.2 µM	3.9 µM	–	–	–
–	CN1CCCC1CCNC(=O)c1cn2c3c(c(N4CCC(c5cnccn5)C4)c(F)cc3c1=O)Oc1ccccc1-2 (stereo not drawn) [Example 81]	–	–	–	–	IC50 ([3]; Table 1E, read-out: STOP Data): 5.7 µM
–	CC1CCN(C(=O)c2cn3c4c(c(NCCN5CCOCC5)c(F)cc4c2=O)Oc2ccccc2-3)CC1 [Example 55]	–	–	–	–	IC50 ([3]; Table 1E, read-out: STOP Data): > 15 µM
10 µM	CN1CCCC1CCNC(=O)c1cn2c3c(cc(SCCc4cnccn4)cc3c1=O)Oc1ccccc1-2 (stereo not drawn)	3 µM	3.8 µM	–	–	–
3.8 µM	CN1CCCC1CCNC(=O)c1cn2c3c(cc(SCc4ccccn4)cc3c1=O)Oc1cc3ccccc3cc1-2 (stereo not drawn)	2.5 µM	3.1 µM	–	–	–
3.9 µM	O=C(NCCN1CCCC1)c1cn2c3c(cc(SCCc4cnccn4)cc3c1=O)Oc1cc3ccccc3cc1-2	0.28 µM	2.8 µM	–	–	–
5.4 µM	Cc1cc(CSc2cc3c4c(c2)c(=O)c(C(=O)NCCC2CCCN2C)cn4-c2cc4ccccc4cc2O3)no1 (stereo not drawn)	2.3 µM	2.9 µM	–	–	–
–	N#Cc1ccc2c(c1)-n1cc(C(=O)NCCN3CCOCC3)c(=O)c3cc(F)c(N4CCC(N)C4)c(c31)O2 (stereo not drawn)	–	–	0.68 µM	0.4 µM	–
–	N#Cc1ccc2c(c1)-n1cc(C(=O)NCCN3CCCC3)c(=O)c3cc(F)c(N4CCC(c5cnccn5)C4)c(c31)O2 (stereo not drawn)	–	–	0.21 µM	0.031 µM	IC50 ([3]; Table 1A, read-out: STOP IC50): 5 µM
–	CN1CCCC1CCNC(=O)c1cn2c3c(c(N4CCC(c5cnccn5)C4)c(F)cc3c1=O)Oc1ccc(C(N)=O)cc1-2 (stereo not drawn)	–	–	11 µM	3.6 µM	–
